Test [1] is described as follows: In vivo bleomycin induced scleroderma model. On the set-up: species or system C57BL/6 mice. As to conditions: mice, bleomycin i.d.; treatment from Day 0 to Day 28. As for the experimental part:
In Vivo Bleomycin Induced Scleroderma Model Experimental Outline
Adult male C57BL/6 mice, aged 8-10 weeks, were assigned to groups and allowed to acclimatise for a week. On Day −1, the back skin of the animals was shaved. From Day 0, animals were administered with 100 μl of a 1 mg/ml solution of bleomycin sulphate in phosphate buffered saline (PBS) by intradermal injection in the shaved skin. Injections were repeated in a one square centimeter area every other day for four weeks. A group of ten animals (Control group) was injected with an identical volume of PBS. Animals were weighed at the beginning of the experiment on Day 0 and then twice weekly throughout the study. At the end of the experiment, on Day 28, animals were culled and samples of back skin were taken for further analysis. All groups were n=10; the vehicle was distilled water and the administration volume was 10 ml/kg for oral gavage (p.o.); administration volume was 25 μl for topical application.
Bodyweights were graphed along with the standard error of the mean (SEM); Skin samples (two punch biopsies per animal, 4 mm in diameter each) samples were hydrolyzed and hydroxyproline content of the samples was determined from analysis in a semi-automated process using a continuous flow analyzer. Autoanalyser readings were calibrated against hydroxyproline standards and collagen content calculated. […] Bleomycin administration induced a highly significant increase in skin collagen content when compared to the control, saline-injected, group (p<0.01).

For test [2], the system named is LPA5 receptor. Kind of test: In vivo farnesyl pyrophosphate-induced hyperalgesia model (Randall-Selitto). The following applies: rat, FPP-induced hyperalgesia. As for the experimental part: In Vivo Farnesyl Pyrophosphate-Induced Inflammatory Model
The FPP-induced hyperalgesia model is a pharmacodynamic rat model which involves inducing pain by injecting FPP, an agonist of LPA5 receptor, into the plantar surface of the hindpaw.
Withdrawal responses were reassessed at 30 and 90 minutes after injection of FPP in the ipsilateral paw.

A further test addresses human LPA1 receptors (Homo sapiens (Human), UniProt Q92633). Kind of test: In vitro LPA1 receptor assay (LPA-driven intracellular calcium release, FLIPR). The test is classed as cell-based. As to conditions: RH7777 cells expressing human LPA1 receptors; LPA at EC80. Here is the method:
In Vitro LPA1 Receptor Assay
Engagement of the LPA1 receptor by its ligand, oleoyl-L-α-lysophosphatidic acid (LPA), leads to the release of intracellular stores of calcium into the cytoplasm mediated through a Gq-driven increase in inositol triphosphate (IP3) levels. Gq is a heterotrimeric G protein subunit that activates phospholipase C.
The ability of test compounds to prevent LPA-driven intracellular release of stored calcium from RH7777 cells expressing human LPA1 receptors was assayed by stimulating the cells with LPA in the presence of various test compounds to measure the test compounds' antagonism, i.e. activity in vitro.
(§1) Approximately 10,000 cells in normal culture medium (Dulbecco's Modified Eagle Media, 10% Foetal Calf Serum) were dispensed per assay well in a black clear bottom collagen coated 384 well plate (Beckton Dickinson). Cells were allowed to settle for thirty minutes at room temperature before being incubated overnight at 37° C., 5% CO2. Sixteen to twenty hours after dispensing, the cells were loaded with a calcium-sensitive fluorescent dye by replacing the culture medium with assay buffer (1× Hanks buffered saline, 25 mM HEPES, 0.1% w/v fatty acid free BSA (bovine serum albumin), pH7.4) containing 1.25 mM probenecid and 1× Calcium 5 Reagent (Molecular Devices). Cells were incubated at 37° C. for one hour to allow for dye uptake.
To test for antagonist activity, test compounds at a final concentration range between 0.32 nM-10 μM (diluted in assay buffer) were added to the assay wells and allowed to incubate for twenty five minutes. […] Ligand-dependent changes in intracellular calcium levels were determined by measuring changes in fluorescence of the dye over […] following excitation over […].
In general terms: Calcium assays in cells follow changes in intracellular calcium, usually with a dye or a luminescent sensor.

The target of test [3] is LPA5 receptor (Homo sapiens (Human), UniProt Q9H1C0). Kind of test: In vitro LPA5 receptor assay (LPA-driven intracellular calcium release, FLIPR). It counts as cell-based. As to conditions: RH7777 cells expressing human LPA5 receptors; LPA at EC90. Here is the method:
In Vitro LPA5 Receptor Assay
Engagement of the LPA5 receptor by its ligand, oleoyl-L-α-lysophosphatidic acid (LPA), leads to the release of intracellular stores of calcium into the cytoplasm mediated through a Gq-driven increase in inositol triphosphate (IP3) levels. Gq is a heterotrimeric G protein subunit that activates phospholipase C.
The ability of test compounds to prevent LPA-driven intracellular release of stored calcium from RH7777 cells expressing human LPA5 receptors was assayed by stimulating the cells with LPA in the presence of various test compounds to measure the test compounds'antagonism, i.e. activity in vitro.
as §1, with “(Minimal Essential” for “(Dulbecco's Modified Eagle”, “poly-D-lysine” for “collagen”, “(Corning).” for “(Beckton Dickinson).”
To test for antagonist activity, test compounds at a final concentration range between 0.32 nM-10 μM (diluted in assay buffer) were added to the assay wells and allowed to incubate for fifteen minutes. […] Ligand-dependent changes in intracellular calcium levels were determined by measuring changes in fluorescence of the dye over […] following excitation over […].

Counter-ions that a name gives are not always drawn.

Chain of LPA5 receptor (Homo sapiens (Human), UniProt Q9H1C0) (Q9H1C0 whole entry): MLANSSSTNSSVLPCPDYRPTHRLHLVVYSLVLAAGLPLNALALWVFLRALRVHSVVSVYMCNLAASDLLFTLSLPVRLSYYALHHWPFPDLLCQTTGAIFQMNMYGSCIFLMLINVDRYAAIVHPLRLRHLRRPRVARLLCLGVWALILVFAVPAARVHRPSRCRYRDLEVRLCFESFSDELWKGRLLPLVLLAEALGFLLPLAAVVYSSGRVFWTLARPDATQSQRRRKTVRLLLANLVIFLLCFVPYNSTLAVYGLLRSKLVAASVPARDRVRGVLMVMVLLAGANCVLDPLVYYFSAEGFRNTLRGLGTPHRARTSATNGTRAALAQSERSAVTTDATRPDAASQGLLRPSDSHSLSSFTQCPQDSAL
Chain of human LPA1 receptors (Q92633 whole entry): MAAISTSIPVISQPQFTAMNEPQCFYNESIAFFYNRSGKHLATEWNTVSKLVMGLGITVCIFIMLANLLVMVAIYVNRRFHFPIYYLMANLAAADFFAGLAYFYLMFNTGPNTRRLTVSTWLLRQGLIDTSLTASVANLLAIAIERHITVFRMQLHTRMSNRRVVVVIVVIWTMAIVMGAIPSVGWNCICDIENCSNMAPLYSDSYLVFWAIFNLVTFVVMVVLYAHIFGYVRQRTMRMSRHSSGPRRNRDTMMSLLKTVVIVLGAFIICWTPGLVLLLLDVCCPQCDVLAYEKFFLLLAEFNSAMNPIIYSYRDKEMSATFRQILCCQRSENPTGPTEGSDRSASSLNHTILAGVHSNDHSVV

For `C[C@H]1C[C@H]2[C@@H]3CCC4=CC(=O)C=C[C@]4(C)[C@@]3(F)[C@@H](O)C[C@]2(C)[C@@]1(O)C(=O)CO` [Betamethasone, reference compound], in test [1], the “skin collagen content compared to the vehicle-treated group” value is listed as “non-significant reduction”.
One may read the IC50 as the concentration needed to halve the response being measured. On to `Cc1ccccc1Oc1ccc(C(=O)N(Cc2ccccc2)Cc2ccc(C(=O)O)cc2)cc1` [Example 24, 4-((N-Benzyl-4-(o-tolyloxy)benzamido)methyl)benzoic acid], for which, in the test on LPA5 receptor [2] (route po), the “In vivo efficacy (minimum effective dose (MED)” value turned out to be 30 mg/kg. The IC50 on human LPA1 receptors amounted to 11 nM; at LPA5 receptor [3] it was 7 nM.
Turning to `Cc1ccc(NC(=O)c2ccc(CN3CCN(C)CC3)cc2)cc1Nc1nccc(-c2cccnc2)n1` [Imatinib, Imatinib mesylate, reference compound], in test [1], the “skin collagen content compared to the vehicle-treated group” value is on record as “non-significant reduction”.
Consider `O=C(O)c1ccc(CN(Cc2ccccc2)C(=O)c2ccc(Oc3ccccc3F)cc2)cc1` [Example 11, 4-((N-Benzyl-4-(2-fluorophenoxy)benzamido)methyl)benzoic acid], for which, in the test with LPA5 receptor [2] (route po), the “In vivo efficacy (minimum effective dose (MED) mg/kg)” value is “≦10 mg/kg”. Moreover, the IC50 at human LPA1 receptors and on LPA5 receptor [3] was 6 nM each time.
In the case of `Cc1cccc(F)c1Oc1ccc(C(=O)N(Cc2ccc(C(=O)O)cc2)CC2CC2)cc1` [Example 40, 4-((N-(Cyclopropylmethyl)-4-(2-fluoro-6-methylphenoxy)-benzamido)methyl)benzoic acid], the “In vivo efficacy (minimum effective dose (MED)” value with LPA5 receptor [2] (route po) was 60 mg/kg. For the same molecule, the figures for the IC50 on human LPA1 receptors and at LPA5 receptor [3] were 160 nM and 31 nM, respectively.
For `COc1ccccc1Oc1ccc(C(=O)N(Cc2ccc(C(=O)O)cc2)CC(F)F)cc1` [Example 29, 4-((N-(2,2-Difluoroethyl)-4-(2-methoxyphenoxy)benzamido)-methyl)benzoic acid], the IC50 on human LPA1 receptors is 34 nM; at LPA5 receptor [3], 43 nM.
In the case of `COc1ccccc1Oc1ccc(C(=O)N(Cc2ccc(C(=O)O)cc2)CC2CC2)cc1` [Example 31, 4-((N-(Cyclopropylmethyl)-4-(2-methoxyphenoxy)benzamido)-methyl)benzoic acid], the half-inhibitory concentration (IC50) on human LPA1 receptors turned out to be 4 nM; at LPA5 receptor [3], 5 nM.
`CC(C)CCN(Cc1ccc(C(=O)O)cc1)C(=O)c1ccc(Oc2ccccc2F)cc1` [Example 8, 4-((4-(2-Fluorophenoxy)-N-isopentylbenzamido)methyl)benzoic acid]: the “In vivo efficacy (minimum effective dose (MED)” value with LPA5 receptor [2] (route po) came to 100 mg/kg. Further, the IC50 is 46 nM at human LPA1 receptors and 32 nM at LPA5 receptor [3].
Turning to `COc1cccc(CN(Cc2ccc(C(=O)O)cc2)C(=O)c2ccc(Oc3ccccc3F)cc2)c1` [Example 13, 4-((4-(2-Fluorophenoxy)-N-(3-methoxybenzyl)benzamido)-methyl)benzoic acid], the IC50 at human LPA1 receptors amounted to 4 nM; at LPA5 receptor [3], 3 nM.
In the same order, the values of `COc1ccccc1Oc1ccc(C(=O)N(CCC(F)(F)F)Cc2ccc(C(=O)O)cc2)cc1` [Example 64, 4-((4-(2-Methoxyphenoxy)-N-(3,3,3-trifluoropropyl)-benzamido)methyl)benzoic acid] are 9 nM and 7 nM.
For `Cc1cccc(C)c1Oc1ccc(C(=O)N(Cc2ccccc2)Cc2ccc(C(=O)O)cc2)cc1` [Example 46, 4-((N-Benzyl-4-(2,6-dimethylphenoxy)benzamido)methyl)benzoic acid], in that order: 19 nM and 17 nM.
For `O=C(O)c1ccc(CN(CCC(F)(F)F)C(=O)c2ccc(Oc3ccccc3F)cc2)cc1` [Example 71, 4-((4-(2-Fluorophenoxy)-N-(3,3,3-trifluoropropyl)benzamido)methyl)benzoic acid], in that order: 59 nM and 83 nM.
Consider `COc1cc(F)ccc1Oc1ccc(C(=O)N(Cc2ccc(C(=O)O)cc2)CC2CC2)cc1` [Example 68, 4-((N-(Cyclopropylmethyl)-4-(4-fluoro-2-methoxyphenoxy)benzamido)methyl)benzoic acid], for which the IC50 at human LPA1 receptors stood at 13 nM; at LPA5 receptor [3], 10 nM.
In the same order, the values of `COc1ccccc1Oc1ccc(C(=O)N(CCCc2ccccc2)Cc2ccc(C(=O)O)cc2)cc1` [Example 32, 4-((4-(2-Methoxyphenoxy)-N-(3-phenylpropyl)benzamido)-methyl)benzoic acid] are 2 nM and 0.4 nM.
In the same order, the values of `CCCCN(Cc1ccc(C(=O)O)cc1)C(=O)c1ccc(Oc2ccccc2F)cc1` [Example 75, 4-((N-Butyl-4-(2-fluorophenoxy)benzamido)methyl)benzoic acid] are 31 nM and 22 nM.
For `Cc1ccccc1Oc1ccc(C(=O)N(Cc2ccc(C(=O)O)cc2)CC(F)(F)F)cc1` [Example 70, 4-((4-(o-Tolyloxy)-N-(2,2,2-trifluoroethyl)benzamido)methyl)benzoic acid], in that order: 47 nM and 140 nM.
With `O=C(O)c1ccc(CN(CCC2CC2)C(=O)c2ccc(Oc3c(F)cccc3F)cc2)cc1` [Example 38, 4-((N-(2-Cyclopropylethyl)-4-(2,6-difluorophenoxy)benzamido)-methyl)benzoic acid], the IC50 on human LPA1 receptors came to 36 nM; at LPA5 receptor [3], 140 nM.
On to `O=C(O)c1ccc(CN(CC(F)(F)F)C(=O)c2ccc(Oc3ccccc3Cl)cc2)cc1` [Example 72, 4-((4-(2-Chlorophenoxy)-N-(2,2,2-trifluoroethyl)benzamido)methyl)benzoic acid], for which the results for the IC50 on human LPA1 receptors and on LPA5 receptor [3] were 29 nM and 42 nM, respectively.
In the case of `CC(C)CN(Cc1ccc(C(=O)O)cc1)C(=O)c1ccc(Oc2ccccc2F)cc1` [Example 4, 4-((4-(2-Fluorophenoxy)-N-isobutylbenzamido)methyl)benzoic acid], in the test with LPA5 receptor [2] (route ip), the “In vivo efficacy (minimum effective dose (MED)” value amounted to 1 mg/kg. Further, the “In vivo efficacy (minimum effective dose (MED) mg/kg)” value with LPA5 receptor [2] (route po) was “≦10 mg/kg”. Further, the values for the IC50 at human LPA1 receptors and at LPA5 receptor [3] were 49 nM and 63 nM, respectively.
With `O=C(O)c1ccc(CN(CC2CC2)C(=O)c2ccc(Oc3ccccc3F)cc2F)cc1` [Example 54, 4-((N-(Cyclopropylmethyl)-2-fluoro-4-(2-fluorophenoxy)-benzamido)methyl)benzoic acid], the figures for the IC50 at human LPA1 receptors and at LPA5 receptor [3] were 27 nM and 26 nM, respectively.
In the same order, the values of `Cc1ccccc1Oc1ccc(C(=O)N(Cc2ccc(C(=O)O)cc2)CC2CC2)cc1` [Example 22, 4-((N-(Cyclopropylmethyl)-4-(o-tolyloxy)benzamido)methyl)benzoic acid] are 30 nM and 24 nM.
`Cc1ccccc1Oc1ccc(C(=O)N(CCc2ccccc2)Cc2ccc(C(=O)O)cc2)cc1` [Example 25, 4-((N-Phenethyl-4-(o-tolyloxy)benzamido)methyl)benzoic acid]: the IC50 on human LPA1 receptors worked out at 14 nM; on LPA5 receptor [3], 29 nM.

The record behind these values is patent US9464060B2, “Compounds” (TAKEDA PHARMACEUTICAL COMPANY LIMITED, priority 2013, dated 2016).
